Laboratory results published in ChEMBL document CHEMBL1201862, “PubChem BioAssay data set” (2004).
Active and inactive are the calls of the source.

Experiments:
[1] = target: T1, E3 ubiquitin-protein ligase XIAP (Homo sapiens, UniProt P98170); experiment: Counter Screen using XIAP-Bir3 for Chemical Antagonists of Bir1/2 domains of IAP-family anti-apoptotic proteins. [Related pubchem assays (depositor defined):AID1018, AID1449, AID1514, AID1638, AID1749, AID1750, AID488957, AID488963]
[2] = target: T1, E3 ubiquitin-protein ligase XIAP; experiment: XIAP antagonists, biochemical, IAP family, fluorescence polarization (AID 1018); type: functional
Nonstructural protein 1 = Nonstructural protein 1 (Influenza A virus, UniProt Q194T2); type: functional, Influenza A virus (A/California/07/2009(H1N1))
Sequence of Nonstructural protein 1 (Q194T2 whole entry): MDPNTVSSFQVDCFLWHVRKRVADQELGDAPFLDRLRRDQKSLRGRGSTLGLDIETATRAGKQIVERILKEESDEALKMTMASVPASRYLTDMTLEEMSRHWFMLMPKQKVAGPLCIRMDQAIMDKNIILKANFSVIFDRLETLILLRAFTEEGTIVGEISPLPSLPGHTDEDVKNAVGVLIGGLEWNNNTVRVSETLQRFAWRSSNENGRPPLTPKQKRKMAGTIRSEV

H9c2 = experiment: cells; type: functional, cell-based; details: Rattus norvegicus, H9c2, Myocardium;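 further: confirmatory concentration-response retest of ultra-high-throughput screening hits for modulation of myocardial damage; cell death induced by hydrogen peroxide oxidative stress; compound pretreatment for 60 min then peroxide exposure for 2 h; potency is for protecting the cells against peroxide damage rather than for killing them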
[3] = inhibitors of firefly luciferase expression or activity, dose response, H4 neuroglioma cells, luminescence (AID 1990); type: functional, cell-based
[4] = insulin promoter down-regulators in MIN6 cells, imaging, high-content screening, mouse beta cells (AID 1628); type: functional
cells [5] = type: functional, cell-based
[6] = Luminescence Cell-Based Dose Response HTS to Identify Inhibitors of 5'UTR Stem-Loop Driven Prion Protein mRNA Translation in H4 Neuroglioblastoma Cells. [Related pubchem assays: 1827 (Project Summary), 1813 (Primary HTS)]; type: functional
[7] = cytotoxicity in MIN6 insulinoma cells, dose response, cytotoxicity control, cell-based, mouse insulinoma (AID 2122); type: functional;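 further: confirmatory high-throughput counterscreen run to flag cytotoxic compounds; mouse MIN-6 beta cells carrying an insulin promoter eGFP reporter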
[8] = inhibitors of SNCA 5'UTR-driven reporter translation, confirmation, H4 neuroglioma cells, luminescence (AID 1988); type: functional, cell-based
cells [9] = type: functional, cell-based; remark: listed apart in the source
[10] = Luminescence Cell-Based Dose Retest to Confirm Inhibitors of Cancer Stem Cells. [Related pubchem assays (depositor defined):AID2717, AID2721]; type: functional; details: Homo sapiens
[11] = target: Disintegrin and metalloproteinase domain-containing protein 17 (Homo sapiens, UniProt P78536); experiment: exosite inhibitors of ADAM17, dose response, biochemical (AID 743260)
Sequence of Disintegrin and metalloproteinase domain-containing protein 17 (P78536 whole entry, the tested form may be a part): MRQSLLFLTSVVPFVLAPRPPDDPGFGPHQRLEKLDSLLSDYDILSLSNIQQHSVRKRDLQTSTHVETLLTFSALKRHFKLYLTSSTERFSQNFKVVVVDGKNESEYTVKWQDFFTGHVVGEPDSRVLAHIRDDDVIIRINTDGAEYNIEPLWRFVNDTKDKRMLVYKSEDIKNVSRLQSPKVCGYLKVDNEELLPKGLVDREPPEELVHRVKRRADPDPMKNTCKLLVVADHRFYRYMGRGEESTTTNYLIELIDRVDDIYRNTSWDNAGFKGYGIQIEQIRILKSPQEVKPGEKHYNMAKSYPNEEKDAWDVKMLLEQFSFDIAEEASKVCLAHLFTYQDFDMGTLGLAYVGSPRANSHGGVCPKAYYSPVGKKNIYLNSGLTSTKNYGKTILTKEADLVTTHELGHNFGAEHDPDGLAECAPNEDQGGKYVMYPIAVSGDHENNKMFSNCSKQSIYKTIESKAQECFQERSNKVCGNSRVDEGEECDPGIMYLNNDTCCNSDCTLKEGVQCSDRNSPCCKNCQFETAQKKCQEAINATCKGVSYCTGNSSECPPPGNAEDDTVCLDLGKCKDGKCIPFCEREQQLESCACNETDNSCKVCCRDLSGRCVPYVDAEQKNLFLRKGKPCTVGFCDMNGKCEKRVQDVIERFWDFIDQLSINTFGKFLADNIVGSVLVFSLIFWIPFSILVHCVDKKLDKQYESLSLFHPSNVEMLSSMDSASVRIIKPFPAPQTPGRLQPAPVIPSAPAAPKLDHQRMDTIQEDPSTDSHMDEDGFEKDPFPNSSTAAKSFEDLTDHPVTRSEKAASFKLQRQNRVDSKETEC

[12] = ADAM10 protease inhibitors, dose response, selectivity assay for ADAM17 exosite inhibitor project, biochemical, FRET peptide substrate, recombinant human ADAM10 (AID 743259);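 further: ADAM10 enzyme cleaving a FRET peptide substrate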
HEK293 [13] = experiment: NOD1 signaling inhibitors, primary screen, cell-based, luminescence, uHTS (AID 1578); type: functional; details: Homo sapiens
BJ [14] = experiment: cytotoxicity toward BJ-TERT fibroblasts, dose response, cell-based, RAS-independent, luminescence (AID 1933); type: functional; details: Homo sapiens
HEK293 [15] = experiment: cells; type: functional, cell-based; details: Homo sapiens
BJ [16] = experiment: cells; type: functional, cell-based; details: Homo sapiens
HEK293 [17] = experiment: cells; type: functional, cell-based; details: Homo sapiens; remark: listed apart in the source
[18] = target: Nucleotide-binding oligomerization domain-containing protein 2 (Homo sapiens, UniProt Q9HC29); experiment: NOD2 signaling inhibitors, cell-based, luminescence, uHTS, HEK293 (AID 1566); type: functional
Sequence of Nucleotide-binding oligomerization domain-containing protein 2 (Q9HC29 whole entry, the tested form may be a part): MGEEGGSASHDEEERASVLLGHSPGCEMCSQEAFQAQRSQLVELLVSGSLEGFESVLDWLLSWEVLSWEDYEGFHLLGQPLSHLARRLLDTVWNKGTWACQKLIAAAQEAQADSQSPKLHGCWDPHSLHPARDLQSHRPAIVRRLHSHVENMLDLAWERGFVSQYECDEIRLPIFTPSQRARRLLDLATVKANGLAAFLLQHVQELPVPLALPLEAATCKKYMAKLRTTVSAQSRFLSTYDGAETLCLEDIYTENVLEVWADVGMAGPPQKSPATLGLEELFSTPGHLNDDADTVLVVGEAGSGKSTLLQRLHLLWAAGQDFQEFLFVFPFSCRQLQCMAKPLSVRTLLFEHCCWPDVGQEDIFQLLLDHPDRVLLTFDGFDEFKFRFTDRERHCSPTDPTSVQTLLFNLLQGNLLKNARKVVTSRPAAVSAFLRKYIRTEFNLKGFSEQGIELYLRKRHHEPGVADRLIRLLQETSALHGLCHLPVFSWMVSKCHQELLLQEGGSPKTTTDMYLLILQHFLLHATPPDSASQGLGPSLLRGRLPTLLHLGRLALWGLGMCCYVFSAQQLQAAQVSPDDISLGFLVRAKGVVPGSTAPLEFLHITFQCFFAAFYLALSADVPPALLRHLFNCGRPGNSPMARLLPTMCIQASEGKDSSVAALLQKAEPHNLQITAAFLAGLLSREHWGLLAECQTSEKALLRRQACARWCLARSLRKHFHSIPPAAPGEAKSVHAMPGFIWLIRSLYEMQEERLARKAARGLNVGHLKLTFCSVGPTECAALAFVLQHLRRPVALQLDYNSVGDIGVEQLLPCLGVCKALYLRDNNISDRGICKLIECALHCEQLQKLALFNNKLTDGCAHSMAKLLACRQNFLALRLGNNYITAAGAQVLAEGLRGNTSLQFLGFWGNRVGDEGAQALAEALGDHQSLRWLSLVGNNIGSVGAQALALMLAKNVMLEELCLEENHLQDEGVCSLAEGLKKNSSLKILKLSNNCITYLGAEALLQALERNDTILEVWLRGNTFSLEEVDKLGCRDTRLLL

HEK293 [19] = experiment: NOD2 signaling inhibitors in MDP-stimulated cells, cell-based, uHTS, luminescence (AID 2001); type: functional; details: Homo sapiens
HEK293 [20] = experiment: cells; type: functional, cell-based; details: Homo sapiens; remark: listed apart in the source
BJ [21] = experiment: cytotoxicity toward BJ-TERT-LT-ST fibroblasts, dose response, cell-based, RAS-independent, luminescence (AID 1935); type: functional; details: Homo sapiens;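 further: BJ fibroblasts immortalized with TERT plus LT and ST oncogenes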
[22] = cytotoxicity toward DRD oncogenic fibroblasts, dose response, cell-based, non-viral oncogenic, luminescence (AID 1934); type: functional; details: Homo sapiens
[23] = target: T2, Replicative DNA helicase DnaB (Mycobacterium tuberculosis, UniProt P9WMR3); experiment: DnaB intein splicing inhibitors, dose response, biochemical, cell-free fluorescence (AID 449749); type: functional
T2 sequence (P9WMR3 whole entry): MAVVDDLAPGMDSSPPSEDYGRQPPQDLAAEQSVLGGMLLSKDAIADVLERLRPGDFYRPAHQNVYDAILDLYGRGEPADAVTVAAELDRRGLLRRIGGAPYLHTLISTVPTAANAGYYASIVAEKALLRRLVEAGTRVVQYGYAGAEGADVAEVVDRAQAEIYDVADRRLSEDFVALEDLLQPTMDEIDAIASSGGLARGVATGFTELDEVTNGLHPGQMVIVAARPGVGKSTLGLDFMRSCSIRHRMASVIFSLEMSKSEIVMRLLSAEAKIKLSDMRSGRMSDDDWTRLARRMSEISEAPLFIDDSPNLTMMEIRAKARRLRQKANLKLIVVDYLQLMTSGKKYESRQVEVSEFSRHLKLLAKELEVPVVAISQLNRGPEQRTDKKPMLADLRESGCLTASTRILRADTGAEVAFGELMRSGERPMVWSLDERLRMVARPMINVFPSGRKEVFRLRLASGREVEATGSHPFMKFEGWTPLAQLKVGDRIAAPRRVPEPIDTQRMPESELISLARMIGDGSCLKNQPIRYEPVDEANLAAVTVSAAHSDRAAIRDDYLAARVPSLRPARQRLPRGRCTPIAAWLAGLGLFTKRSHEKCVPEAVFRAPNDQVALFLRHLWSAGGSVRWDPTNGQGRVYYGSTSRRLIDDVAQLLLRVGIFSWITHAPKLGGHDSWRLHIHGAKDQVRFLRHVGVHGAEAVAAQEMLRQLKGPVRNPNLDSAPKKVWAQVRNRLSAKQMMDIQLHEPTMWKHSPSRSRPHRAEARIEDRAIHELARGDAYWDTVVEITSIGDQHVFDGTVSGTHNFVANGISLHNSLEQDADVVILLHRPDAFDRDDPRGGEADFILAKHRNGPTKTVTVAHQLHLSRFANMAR

Protein RecA = target: T3, Protein RecA (Mycobacterium tuberculosis, UniProt P9WHJ3); experiment: Fluorescence Cell-Free Homogeneous Dose Retest to Identify Inhibitors of RecA-Intein Splicing Activity. [Related pubchem assays (depositor defined):AID2097, AID2223, AID489010, AID492950]; type: functional
T3 sequence (P9WHJ3 whole entry): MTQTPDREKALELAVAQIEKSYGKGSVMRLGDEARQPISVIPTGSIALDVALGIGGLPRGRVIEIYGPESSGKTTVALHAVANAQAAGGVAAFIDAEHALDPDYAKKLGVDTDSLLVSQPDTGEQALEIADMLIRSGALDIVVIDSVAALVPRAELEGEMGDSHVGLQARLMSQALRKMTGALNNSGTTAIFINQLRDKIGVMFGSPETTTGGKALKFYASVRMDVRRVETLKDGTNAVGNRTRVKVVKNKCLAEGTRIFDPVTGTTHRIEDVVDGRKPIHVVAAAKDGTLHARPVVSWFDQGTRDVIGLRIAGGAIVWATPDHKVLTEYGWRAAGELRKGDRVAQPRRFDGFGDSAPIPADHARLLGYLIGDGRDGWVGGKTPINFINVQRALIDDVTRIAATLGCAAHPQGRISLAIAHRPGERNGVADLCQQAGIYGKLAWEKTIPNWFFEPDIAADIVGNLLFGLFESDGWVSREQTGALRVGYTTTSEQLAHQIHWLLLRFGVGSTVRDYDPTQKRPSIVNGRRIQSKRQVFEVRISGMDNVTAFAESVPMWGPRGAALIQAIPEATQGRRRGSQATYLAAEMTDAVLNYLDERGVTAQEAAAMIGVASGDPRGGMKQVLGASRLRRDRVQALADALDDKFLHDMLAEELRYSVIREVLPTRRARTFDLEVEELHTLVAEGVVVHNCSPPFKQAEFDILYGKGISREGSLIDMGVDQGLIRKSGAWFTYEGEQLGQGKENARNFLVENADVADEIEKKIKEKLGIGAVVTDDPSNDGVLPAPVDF

Cytochrome P450 2C9 = Cytochrome P450 2C9 (Homo sapiens, UniProt P11712)
Sequence of Cytochrome P450 2C9 (P11712 whole entry): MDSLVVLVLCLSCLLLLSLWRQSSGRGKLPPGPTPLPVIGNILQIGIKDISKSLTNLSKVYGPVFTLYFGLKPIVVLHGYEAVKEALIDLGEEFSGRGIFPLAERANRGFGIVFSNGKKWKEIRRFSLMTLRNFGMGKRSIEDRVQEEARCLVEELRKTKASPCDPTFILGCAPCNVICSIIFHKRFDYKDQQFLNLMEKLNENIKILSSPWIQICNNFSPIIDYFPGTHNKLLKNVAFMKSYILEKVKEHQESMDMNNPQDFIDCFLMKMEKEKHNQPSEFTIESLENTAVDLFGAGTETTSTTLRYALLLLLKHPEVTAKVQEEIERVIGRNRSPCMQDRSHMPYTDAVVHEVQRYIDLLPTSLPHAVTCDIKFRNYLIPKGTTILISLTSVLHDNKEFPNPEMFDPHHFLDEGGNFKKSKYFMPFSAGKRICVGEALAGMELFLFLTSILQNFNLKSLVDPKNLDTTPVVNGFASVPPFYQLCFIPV

Cytochrome P450 3A4 = Cytochrome P450 3A4 (Homo sapiens, UniProt P08684);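 further: CYP3A4 tested as one member of a cytochrome P450 panel screen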
Sequence of Cytochrome P450 3A4 (P08684 whole entry): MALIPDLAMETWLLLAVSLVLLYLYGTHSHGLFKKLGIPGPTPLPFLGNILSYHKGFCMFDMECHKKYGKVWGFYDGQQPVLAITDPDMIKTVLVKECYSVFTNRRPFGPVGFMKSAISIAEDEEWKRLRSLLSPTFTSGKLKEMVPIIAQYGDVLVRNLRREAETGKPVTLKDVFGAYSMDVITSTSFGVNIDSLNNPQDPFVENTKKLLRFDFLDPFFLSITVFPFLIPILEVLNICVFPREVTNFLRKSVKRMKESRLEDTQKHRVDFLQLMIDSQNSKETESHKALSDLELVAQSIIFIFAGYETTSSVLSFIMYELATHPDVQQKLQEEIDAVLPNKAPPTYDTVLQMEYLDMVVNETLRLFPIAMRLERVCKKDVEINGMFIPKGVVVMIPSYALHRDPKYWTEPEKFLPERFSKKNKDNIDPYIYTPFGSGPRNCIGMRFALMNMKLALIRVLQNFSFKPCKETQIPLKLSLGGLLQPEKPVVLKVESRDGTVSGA

[24] = NIH-3T3 fibroblast cytotoxicity, dose response, cytotoxicity control, cell-based, fluorescence, Alamar Blue, secondary assay (AID 2327); type: functional;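 further: NIH-3T3 mouse fibroblasts cultured with fluconazole at 8 µg/mL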
[25] = C. albicans growth with fluconazole, confirmation, fluorescence, retest (AID 2467); type: functional, cell-based
[26] = inhibitors of intracellular T. cruzi replication, confirmation, NIH3T3 host cells, beta-gal luminescence (AID 2044); type: functional, cell-based;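 further: intracellular parasites grown in NIH/3T3 mouse fibroblasts as host cells; luminescent beta-galactosidase reporter signal from transgenic T. cruzi replicating inside host cells; inhibitors lower the luminescence signal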
[27] = cytotoxicity toward NIH3T3 fibroblasts, dose response, counter-screen, cell-based, ATP luminescence, mouse fibroblasts (AID 2010); type: functional;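 further: cells exposed to compound for about 90 hours before reading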
Protein Wnt-3a = Protein Wnt-3a (Mus musculus, UniProt P27467); experiment: Wnt3a-driven reporter signaling inhibition, dose response, selectivity assay for Gli-SUFU antagonist project, Wnt-LIGHT cells, luminescence (AID 651570); type: functional; details: read-out: IC50_Mean;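 further: Wnt-LIGHT reporter cells stimulated with conditioned medium from Wnt3a-producing cells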
Sequence of Protein Wnt-3a (P27467 whole entry): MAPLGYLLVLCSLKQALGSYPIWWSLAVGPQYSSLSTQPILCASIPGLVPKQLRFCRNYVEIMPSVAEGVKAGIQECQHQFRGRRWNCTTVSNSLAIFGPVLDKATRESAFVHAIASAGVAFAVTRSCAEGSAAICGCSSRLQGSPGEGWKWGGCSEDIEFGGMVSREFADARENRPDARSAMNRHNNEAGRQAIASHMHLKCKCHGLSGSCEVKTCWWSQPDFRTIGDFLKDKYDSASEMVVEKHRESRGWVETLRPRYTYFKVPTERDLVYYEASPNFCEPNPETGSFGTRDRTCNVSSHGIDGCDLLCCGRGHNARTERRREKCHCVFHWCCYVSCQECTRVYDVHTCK

T1 sequence (P98170 whole entry): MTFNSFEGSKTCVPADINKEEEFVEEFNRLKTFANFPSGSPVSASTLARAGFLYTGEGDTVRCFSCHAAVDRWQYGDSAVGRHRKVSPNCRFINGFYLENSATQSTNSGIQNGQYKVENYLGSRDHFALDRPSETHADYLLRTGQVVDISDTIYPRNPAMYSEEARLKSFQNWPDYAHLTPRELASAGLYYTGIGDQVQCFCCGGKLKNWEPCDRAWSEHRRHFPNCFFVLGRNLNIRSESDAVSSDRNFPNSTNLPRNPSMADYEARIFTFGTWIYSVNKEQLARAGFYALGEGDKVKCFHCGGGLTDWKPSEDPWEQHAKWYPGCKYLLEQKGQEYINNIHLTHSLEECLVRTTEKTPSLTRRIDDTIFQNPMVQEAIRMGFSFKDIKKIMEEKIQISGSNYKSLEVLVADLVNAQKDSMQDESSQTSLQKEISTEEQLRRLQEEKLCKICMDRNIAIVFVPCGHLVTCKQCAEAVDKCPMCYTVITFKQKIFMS

With `O=C(CN1C(=O)CCC1=O)Nc1nc(-c2ccccn2)cs1` the IC50 [1] was > 100 µM (inactive), the IC50 [2] was > 100 µM (not active) and the IC50 (Nonstructural protein 1) was 4.83 µM (active). The IC50 (H9c2) was 33.4 µM (inactive).
For `CCOC(=O)N1CCC(=NNC(=O)c2ccccc2F)CC1`, the IC50 [1] was > 100 µM (inactive) and the IC50 [2] was > 100 µM (not active).
With `O=C(NC(CSCc1ccccc1)C(=O)N/N=C/c1ccc(O)cc1O)c1ccc([N+](=O)[O-])cc1` (centres undefined) the EC50 [3] was 6.53 µM (inconclusive), the IC50 [4] was 2.19 µM (active) and the EC50 (cells [5]) was 9.52 µM (active). For the same molecule, the EC50 [6] was 10.9 µM (active), the IC50 [7] was 3.07 µM (active) and the EC50 [8] was 5.27 µM (active). The EC50 (cells [9]) was > 350 µM (not active), the AC50 [10] was 3 µM (active) and the IC50 [11] was > 69.5 µM (inactive). The IC50 [12] was > 69.5 µM (inactive).
In the case of `Cc1cccc(CN2CCN(C(=O)CCl)CC2)c1`, the EC50 (HEK293 [13]) is reported as > 20 µM (inactive), the EC50 (BJ [14]) is reported as 9.64 µM (inconclusive) and the IC50 (HEK293 [15]) is reported as 13.9 µM (active). The EC50 (BJ [16]) was > 150 µM (not active), the IC50 (HEK293 [17]) was > 20 µM (inactive) and the EC50 [18] was > 20 µM (inactive). The IC50 (HEK293 [19]) was 16.7 µM (inactive), the IC50 (HEK293 [20]) was > 20 µM (inactive) and the EC50 (BJ [21]) was > 150 µM (inconclusive). For the same molecule, the EC50 [22] was 31.2 µM (active), the AC50 [23] was 21.4 µM (active) and the EC50 (Protein RecA) was 20.2 µM (active).
In the case of `CSc1nc2nc3c(c(O)n2n1)CN(Cc1ccccc1)CC3`, the AC50 (Cytochrome P450 2C9) is reported as 15.8 µM (inconclusive) and the AC50 (Cytochrome P450 3A4) is reported as “inconclusive”.
For `O=C(COC(=O)C(Cc1ccccc1)NC(=O)c1ccco1)NC1CC1` (centres undefined), the IC50 [1] was > 100 µM (inactive) and the IC50 [2] was > 100 µM (not active).
In the case of `CC(C)CCOC(=O)C[N+](C)(C)CCOC1CC2CCC1(C)C2(C)C` (centres undefined), the EC50 [24] is reported as > 160 µM (inactive), the IC50 [4] is reported as 0.643 µM (active) and the IC50 [7] is reported as < 0.25 µM (active). The EC50 [25] was 1.3 µM (active), the EC50 [26] was 0.286 µM (active) and the EC50 [27] was > 60 µM (not active). The IC50 (Protein Wnt-3a) was 5.09 µM (active).
